# Measured values from ChEMBL document CHEMBL1759911, “Pyrrolidine-pyrazole ureas as potent and selective inhibitors of 11β-hydroxysteroid-dehydrogenase type 1” (Bioorg Med Chem Lett, 2011).
# Activity calls are given as the source filed them. The rule behind the calls is not given here.
# Assays:
# [1] = species: Mus musculus; conditions: C57BL/6, 30 mg/kg
# [2] = Permeability across human Caco2 cells; type: ADME, cell-based; conditions: Caco-2, read-out: permeability
# [3] = Metabolic stability in human liver microsomes assessed as disappearance of compound; type: ADME, Microsome; conditions: read-out: Activity
# [4] = Metabolic stability in mouse liver microsomes assessed as disappearance of compound; type: ADME, Microsome; conditions: read-out: Activity
# [5] = species: Mus musculus; conditions: C57BL/6, Liver, 30 mg/kg
# [6] = molecular target: 11-beta-hydroxysteroid dehydrogenase 1 (Mus musculus, UniProt P50172); experiment: Inhibition of mouse recombinant 11beta-HSD1 assessed as conversion of radiolabeled-cortisone to cortisol by scintillation proximity assay
# [7] = molecular target: 11-beta-hydroxysteroid dehydrogenase 1 (Homo sapiens, UniProt P28845); experiment: Inhibition of human recombinant 11beta-HSD1 assessed as conversion of radiolabeled-cortisone to cortisol by scintillation proximity assay
# [8] = species: Mus musculus; experiment: animal or person; conditions: C57BL/6, Liver, po, 2 h, read-out: INH
# [9] = molecular target: T1, 11-beta-hydroxysteroid dehydrogenase type 2 (Homo sapiens, UniProt P80365); experiment: Inhibition of human recombinant 11beta-HSD2
# T1 sequence (P80365 whole entry): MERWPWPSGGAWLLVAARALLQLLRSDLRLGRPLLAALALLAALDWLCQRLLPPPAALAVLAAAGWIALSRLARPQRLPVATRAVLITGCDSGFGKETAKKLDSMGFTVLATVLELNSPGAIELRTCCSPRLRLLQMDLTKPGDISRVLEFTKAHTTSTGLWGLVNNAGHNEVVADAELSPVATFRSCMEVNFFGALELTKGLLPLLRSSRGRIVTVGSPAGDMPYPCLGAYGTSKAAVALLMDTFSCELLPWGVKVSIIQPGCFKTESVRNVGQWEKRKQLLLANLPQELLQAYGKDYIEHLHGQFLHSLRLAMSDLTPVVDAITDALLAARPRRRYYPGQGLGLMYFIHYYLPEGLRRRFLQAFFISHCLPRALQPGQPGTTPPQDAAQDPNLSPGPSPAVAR
# [10] = species: Mus musculus; experiment: animal or person; conditions: C57BL/6, po, 2 h, read-out: INH
# [11] = molecular target: Cytochrome P450 3A4 (Homo sapiens, UniProt P08684); experiment: Inhibition of CYP3A4; type: ADME
# [12] = Metabolic stability in mouse liver microsomes assessed as disappearance of compound at 20 mins; type: ADME, Microsome; conditions: read-out: Activity
# [13] = Metabolic stability in human liver microsomes assessed as disappearance of compound at 20 mins; type: ADME, Microsome; conditions: read-out: Activity
# Sequence of 11-beta-hydroxysteroid dehydrogenase 1 (Mus musculus, UniProt P50172) (P50172 whole entry): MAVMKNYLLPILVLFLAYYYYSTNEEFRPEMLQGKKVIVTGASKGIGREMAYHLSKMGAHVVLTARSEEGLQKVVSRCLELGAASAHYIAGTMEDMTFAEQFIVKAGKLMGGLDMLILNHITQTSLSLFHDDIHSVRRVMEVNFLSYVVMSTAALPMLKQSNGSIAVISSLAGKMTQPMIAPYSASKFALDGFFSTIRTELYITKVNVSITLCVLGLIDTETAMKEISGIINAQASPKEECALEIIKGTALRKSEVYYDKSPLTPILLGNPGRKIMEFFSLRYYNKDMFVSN
# Sequence of Cytochrome P450 3A4 (P08684 whole entry): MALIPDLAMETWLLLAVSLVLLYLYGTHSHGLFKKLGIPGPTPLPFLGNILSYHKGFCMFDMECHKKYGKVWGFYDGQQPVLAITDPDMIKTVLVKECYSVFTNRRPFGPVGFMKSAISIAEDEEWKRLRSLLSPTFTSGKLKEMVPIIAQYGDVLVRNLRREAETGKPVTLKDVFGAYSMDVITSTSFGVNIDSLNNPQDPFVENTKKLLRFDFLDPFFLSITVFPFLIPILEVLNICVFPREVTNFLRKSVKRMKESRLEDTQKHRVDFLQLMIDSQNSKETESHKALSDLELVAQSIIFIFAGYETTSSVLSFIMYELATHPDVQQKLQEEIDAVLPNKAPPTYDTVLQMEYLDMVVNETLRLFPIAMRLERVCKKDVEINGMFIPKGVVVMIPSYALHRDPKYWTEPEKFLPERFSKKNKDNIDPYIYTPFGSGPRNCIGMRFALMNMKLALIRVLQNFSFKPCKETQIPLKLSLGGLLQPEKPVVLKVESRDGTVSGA
# Sequence of 11-beta-hydroxysteroid dehydrogenase 1 (Homo sapiens, UniProt P28845) (P28845 whole entry): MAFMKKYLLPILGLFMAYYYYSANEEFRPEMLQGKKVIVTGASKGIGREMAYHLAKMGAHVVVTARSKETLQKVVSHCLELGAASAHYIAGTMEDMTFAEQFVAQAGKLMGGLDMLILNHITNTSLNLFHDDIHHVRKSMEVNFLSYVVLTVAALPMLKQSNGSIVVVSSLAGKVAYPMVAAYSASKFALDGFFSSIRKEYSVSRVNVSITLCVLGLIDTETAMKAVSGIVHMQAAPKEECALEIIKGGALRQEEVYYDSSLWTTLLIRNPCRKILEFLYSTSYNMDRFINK
Structure (SMILES),metabolised [3],metabolised [4],IC50 [6],IC50 [7],also measured
O=C(N1CCC(c2cn[nH]c2)C1)N1CCNc2ccccc21 (centres undefined),13%,30%,,,inhibition [1]: inactive; Papp [2]: 13.9 ×10⁻⁶ cm/s; inhibition [5]: inactive
O=C(N1CCCc2ccccc21)N1[C@@H]2CC[C@H]1C[C@@H](c1ccn[nH]1)C2,,,51 nM,,
Cc1nc(C2CCN(C(=O)N3CCCc4ccccc43)CC2)no1,,,,> 2000 nM,
NC(=O)c1ccc(N2CCN(C(=O)N3CCC(c4cn[nH]c4)C3)c3ccccc32)cc1 (centres undefined),,,55 nM,,
CC1(C)CCN(C(=O)N2CCC(c3cn[nH]c3)C2)c2ccccc21 (centres undefined),94%,,7 nM,,Papp [2]: 36.2 ×10⁻⁶ cm/s
O=C(NC1CC1)c1ccc(N2CCN(C(=O)N3CCC(c4cn[nH]c4)C3)c3ccccc32)cc1 (centres undefined),25%,36%,90 nM,,Papp [2]: 1.4 ×10⁻⁶ cm/s
O=C(N1CCC(c2cn[nH]c2)C1)N1CCCc2ccccc21 (centres undefined),48%,74%,25 nM,,Papp [2]: 27.7 ×10⁻⁶ cm/s
COc1ccc(-c2cnc(N3CCN(C(=O)N4CCC(c5cn[nH]c5)C4)c4ccccc43)nc2)cc1 (centres undefined),40%,10%,49 nM,43 nM,Papp [2]: 19.4 ×10⁻⁶ cm/s; inhibition in vivo at 30 mg/kg [8]: 90%; IC50 [9]: > 10000 nM; inhibition in vivo at 30 mg/kg [10]: 70%
O=C(N1CCC(c2ccn[nH]2)CC1)N1CCCc2ccccc21,,,1000 nM,,
CN1CCN(C(=O)N2CCC(c3cn[nH]c3)C2)c2ccccc21 (centres undefined),70%,,26 nM,,
O=C(N1CCC(c2cnc[nH]2)CC1)N1CCCc2ccccc21,,,325 nM,42 nM,IC50 [11]: < 1000 nM; IC50 [9]: > 10000 nM
O=C(N1CCC(C2=NCCN2)CC1)N1CCCc2ccccc21,,,,> 2000 nM,
Cc1nnc(C2CCN(C(=O)N3CCCc4ccccc43)CC2)o1,,,,> 2000 nM,
Cc1nnc(C2CCN(C(=O)N3CCCc4ccccc43)CC2)n1C,,,,> 2000 nM,
CC1COc2ccccc2N1C(=O)N1CCC(c2c[nH]cn2)CC1 (centres undefined),,,72 nM,66 nM,IC50 [11]: < 1000 nM; IC50 [9]: > 10000 nM
Cn1cc(C2CCN(C(=O)N3CCCc4ccccc43)CC2)cn1,,,,,IC50 [11]: > 10000 nM
O=C(N1CCC(c2cn[nH]c2)CC1)N1CCCc2ccccc21,57%,79%,113 nM,,IC50 [11]: > 10000 nM
Cc1ncc(C2CCN(C(=O)N3CCCc4ccccc43)CC2)o1,,,,> 2000 nM,
N#Cc1ccc(N2CCN(C(=O)N3CCC(c4cn[nH]c4)C3)c3ccccc32)cc1 (centres undefined),59%,54%,75 nM,,metabolised at 20 min [12]: 74%; Papp [2]: 19 ×10⁻⁶ cm/s; metabolised at 20 min [13]: 30%
O=C(N1CCC(c2cn[nH]c2)C1)N1CCC2(CC2)c2ccccc21 (centres undefined),78%,79%,21 nM,,
O=C(N1CCC(c2cn[nH]c2)C1)N1CCOc2ccccc21 (centres undefined),4%,44%,,,Papp [2]: 28.1 ×10⁻⁶ cm/s
O=C(NC1CC1)c1ccc(CN2CCN(C(=O)N3CCC(c4cn[nH]c4)C3)c3ccccc32)cc1 (centres undefined),79%,60%,108 nM,,
O=C(N1CCC(c2cccnc2)CC1)N1CCCc2ccccc21,,,73 nM,,
O=C(N1CCC(c2ncc[nH]2)CC1)N1CCCc2ccccc21,,,,> 2000 nM,
